In patent US20260216239A1 (Arizona Board of Regents on Behalf of the University of …, priority 2020, published 2026):
Entries after “also recorded” stand apart in the source; their conditions may differ.

Key:
[1] = system: Pseudonaja textilis venom; test: Thrombelastography in human plasma of venom procoagulant activity after isolated exposure of venom to compounds; type: biochemical; details: for maximum rate of thrombus generation (MRTG) / total thrombus generation (TTG), clot strength: 100 μM CORM-3, 100 μM RuCl3 or both; for maximum rate of thrombus generation (MRTG) / total thrombus generation (TTG), clot strength / time to maximum rate of thrombus generation (TMRTG): venom 0.1 μg/ml in plasma; for time to maximum rate of thrombus generation (TMRTG): venom exposed 5 min in PBS to 100 μM CORM-3, 100 μM RuCl3 or both
Description: […] A sample of each of these venom mixtures was then placed into human plasma (0.1 μg/ml final concentration of venom), with coagulation determined by thrombelastography until final clot strength stabilized.
(§1) All venom solutions without or with chemical additions in isolation were added as a 1% addition to the plasma mix used in our thrombelastographic system (see, Nielsen, V. G.; et al., Biometals 2016, 29, 913-919; Nielsen, V. G.; Losada, P. A. Basic Clin. Pharmacol. Toxicol. 2017, 120, 207-212; Nielsen, V. G.; Frank, N. J. Thromb. Thrombolysis 2019, 47, 533-539; Nielsen, V. G.; Bazzell, C. M. J. Thromb. Thrombolysis 2017, 43, 203-208; Nielsen, V. G.; Matika, R. W. Hum. Exp. Toxicol. 2017, 36, 727-733; Nielsen, V. G.; et al., Toxins 2018, 10, 322; Nielsen, V. G.; et al., Biometals 2018, 31, 51-59; Nielsen, V. G.; Frank, N. et al., Biometals 2018, 31, 951-959; Nielsen, V. G.; et al., Toxins 2019, 11, 94; Nielsen, V. G.; Frank, N. Hum Exp. Toxicol. 2019, 38, 216-226; Nielsen, V. G. J. Thromb. Thrombolysis 2019, 48, 256-262; Nielsen, V. G.; et al., Blood Coagul. Fibrinolysis 2019, 30, 379-384; Nielsen, V. G. J. Thromb. Thrombolysis 2019, 47, 73-79; Gessner, G.; et al., Eur. J. Pharmacol. 2017, 815, 33-41). […] The thrombelastographic model describes coagulation kinetics with the following three variables: time to maximum thrombus generation (TMRTG, minutes—a measure of time to onset of coagulation), maximum rate of thrombus generation (MRTG, dynes/cm^2/s—a measure of the velocity of clot growth) and total thrombus generation (TTG, dynes/cm^2—a measure of clot strength).
The volumes of subsequently described plasmatic and other additives summed to a final volume of 360 μL. Samples were composed of 320 μL of plasma; 16.4 μL of PBS, 20 μL of 200 mM CaCl2), and 3.6 μL of PBS, RuCl3, or venom solution mixture, which were pipetted into a disposable cup in a Thrombelastograph® hemostasis system (Model 5000, Haemonetics Inc., Braintree, MA, USA) at 37° C., and then rapidly mixed by moving the cup up against and then away from the plastic pin five times. The PBS, RuCl3, or venom solution mixtures was always the last constituent added prior to mixing and data collection. The following viscoelastic parameters described previously (see, Nielsen, V. G.; et al., Biometals 2016, 29, 913-919; Nielsen, V. G.; Losada, P. A. Basic Clin. Pharmacol. Toxicol. 2017, 120, 207-212; Nielsen, V. G.; Frank, N. J. Thromb. Thrombolysis 2019, 47, 533-539; Nielsen, V. G.; Bazzell, C. M. J. Thromb. Thrombolysis 2017, 43, 203-208; Nielsen, V. G.; Matika, R. W. Hum. Exp. Toxicol. 2017, 36, 727-733; Nielsen, V. G.; et al., Toxins 2018, 10, 322; Nielsen, V. G.; et al., Biometals 2018, 31, 51-59; Nielsen, V. G.; Frank, N. et al., Biometals 2018, 31, 951-959; Nielsen, V. G.; et al., Toxins 2019, 11, 94; Nielsen, V. G.; Frank, N. Hum Exp. Toxicol. 2019, 38, 216-226; Nielsen, V. G. J. Thromb. Thrombolysis 2019, 48, 256-262; Nielsen, V. G.; et al., Blood Coagul. Fibrinolysis 2019, 30, 379-384; Nielsen, V. G. J. Thromb.

[2] = system: Atheris nitschei venom; test: as above; type: biochemical; details: venom 1 μg/mL in plasma
Description: as §1
The volumes of subsequently described plasmatic and other additives summed to a final volume of 360 μL. Samples were composed of 320 μL of plasma; 16.4 μL of PBS, 20 μL of 200 mM CaCl2), and 3.6 μL of PBS, RuCl3, or venom solution mixture, which were pipetted into a disposable cup in a Thrombelastograph® hemostasis system (Model 5000, Haemonetics Inc., Braintree, MA, USA) at 37° C., and then rapidly mixed by moving the cup up against and then away from the plastic pin five times. The PBS, RuCl3, or venom solution mixtures was always the last constituent added prior to mixing and data collection. The following viscoelastic parameters described previously (see, Nielsen, V. G.; et al., Biometals 2016, 29, 913-919; Nielsen, V. G.; Losada, P. A. Basic Clin. Pharmacol. Toxicol. 2017, 120, 207-212; Nielsen, V. G.; Frank, N. J. Thromb. Thrombolysis 2019, 47, 533-539; Nielsen, V. G.; Bazzell, C. M. J. Thromb. Thrombolysis 2017, 43, 203-208; Nielsen, V. G.; Matika, R. W. Hum. Exp. Toxicol. 2017, 36, 727-733; Nielsen, V. G.; et al., Toxins 2018, 10, 322; Nielsen, V. G.; et al., Biometals 2018, 31, 51-59; Nielsen, V. G.; Frank, N. et al., Biometals 2018, 31, 951-959; Nielsen, V. G.; et al., Toxins 2019, 11, 94; Nielsen, V. G.; Frank, N. Hum Exp. Toxicol. 2019, 38, 216-226; Nielsen, V. G. J. Thromb. Thrombolysis 2019, 48, 256-262; Nielsen, V. G.; et al., Blood Coagul. Fibrinolysis 2019, 30, 379-384; Nielsen, V. G. J. Thromb. Thrombolysis 2019, 47, 73-79) were measured: time to maximum rate of thrombus generation (TMRTG): this is the time interval (minutes) observed prior to maximum speed of clot growth; maximum rate of thrombus generation (MRTG): this is the maximum velocity of clot growth observed (dynes/cm^2/s); and total thrombus generation (TTG, dynes/cm^2), the final viscoelastic resistance observed after clot formation. Data were collected until the clot strength reached its final plateau (maximum amplitude) that was stable for 3 min.

[3] = venom exposed 5 min to 100 μM RuCl3 in PBS

[C-]#[O+].[C-]#[O+].[C-]#[O+].[C-]#[O+].[C-]#[O+].[C-]#[O+].[Cl][Ru][Cl].[Cl][Ru][Cl] [CORM-2, tricarbonyldichlororuthenium(II) dimer] was tested, and the “procoagulant activity of venom” value ([1]; venom exposed 5 min to 100 μM CORM-2 in 5% human albumin, venom 100 ng/mL in plasma) was “uninhibited”, the “procoagulant activity of venom” value ([1]; venom exposed 5 min to 100 μM CORM-2 in PBS, venom 100 ng/mL in plasma) was “significantly attenuated” and the “procoagulant activity of venom” value ([2]; venom exposed 5 min to 100 μM CORM-2 in 5% human albumin) was “uninhibited”. For the same compound, the “procoagulant activity of venom” value ([2]; venom exposed 5 min to 100 μM CORM-2 in PBS) was “significantly attenuated”.
In the case of “Tricarbonylchloro(glycinato)ruthenium [CORM-3]”, the “maximum rate of thrombus generation (MRTG)” value (“maximum rate … (MRTG)” below) [1] is reported as “significantly decreased; also recorded: decrease”, the “total thrombus generation (TTG), clot strength” value [1] is reported as “enhanced; also recorded: increase” and the “time to maximum rate of thrombus generation (TMRTG)” value (shortened to “time to maximum rate”) [1] is reported as “significantly increased; also recorded: significant increase”.
[Cl][Ru]([Cl])[Cl] [RuCl3, ruthenium(III) chloride] was tested, and the “maximum rate … (MRTG)” value [1] was “significantly decreased; also recorded: decrease”, the “total thrombus generation (TTG), clot strength” value [1] was “enhanced; also recorded: increase” and the “time to maximum rate” value [1] was “significantly increased; also recorded: significant increase”. For the same compound, the “procoagulant activity of venom” value ([1]; venom exposed 5 min to 100 μM RuCl3 in PBS, venom 100 ng/mL in plasma (Example III)) was “significant loss of procoagulant activity”, the “maximum rate … (MRTG)” value [2, 3] was “significant increase” and the “time to maximum rate” value [2, 3] was “very diminutive increase”. The “total thrombus generation (TTG)” value [2, 3] was “significant increase”.
